{
  "source": "patent US8372810B2",
  "about": "“Anti-tumor drug, medicament, composition, and use thereof” (Gene Signal International SA, priority 2007, dated 2013)",
  "molecules": {"B1": {"name": "497C-T3: c, d1, d2 and e domains of the LEL domain of protein 497C, SEQ ID NO:4 (74 amino acids) (protein, listed as Homo sapiens)", "chain": "QRSLSCCGVQNYTNWSTSPYFLEHGIPPSCCMNETDCNPQDLHNLTVAATKVNQKGCYDLVTSFMETNMGIIAG"}},
  "key": {"CALU-6 tumors": {"tested_on": "CALU-6 tumors", "test": "CALU-6 non-small cell lung cancer xenograft in Swiss Nude mice, tumor growth", "format": "in vivo", "conditions": "IP Q2DX8, CDDP 5 mg/kg (G2), 497C-T2 10 mg/kg (G3), 497C-T2 10 mg/kg + CDDP 5 mg/kg (G4)", "experimental": "CALU-6 cells were cultured as adherent cells in complete EMEM medium (Ref. CM1MEM18-01, batch No. 462502, Eurobio, France) 10% fetal calf serum (FCS; Ref. CVFSVF00-01, batch No. 513021, Eurobio, France) under a 37° C., 5% CO2 humidified atmosphere. They were amplified in 75 cm^2-flasks to reach 90×10^6 cells.\nAt D0, CALU-6 cells (human lung carcinoma) were collected from 75 cm^2-flasks by removing the medium and adding 3 ml of trypsine-EDTA (Ref. CEZTDA00-0U, batch No. 633920, Eurobio, France). After 5 min of incubation at 37° C., cells had detached from the plastic and the enzymatic reaction was stopped by adding 3 ml of EMEM medium containing 10% fetal calf serum. Cells were then centrifuged at 700 g for 5 min at room temperature. They were resuspended in serum-free EMEM culture medium. Cells were counted and viability assessment by Trypan Blue exclusion (Ref. CSTCOL03-OU, batch No. 434511, Eurobio, France). The number of viable CALU-6 cells was >99%. The number of cells was then adjusted to 25×10^6 cells/ml in serum-free medium.\nCALU-6 cells 5×10^6 cells/mouse in 200 μl of serum-free medium) were then implanted subcutaneously in the right flank of each mouse.\nAt D12 post-implantation of the CALU-6 cells, the thirty mice were randomized into six groups of 5 mice. Tumor volumes had reached 228 to 468 mm^3 and mean tumor volumes were not statistically different between groups after randomization.\nMean tumor volumes (MTV), mean relative tumor volume (MRTV) and tumor growth inhibition (T/C) were calculated as for example 7."}, "NCI H460 human tumor": {"tested_on": "NCI H460 human tumor", "test": "NCI H460 human tumor xenograft in Swiss Nude mice, tumor growth", "format": "in vivo", "parameters": "key to MRTV D28 / MRTV D12 / MRTV D14 / MRTV D16 / MRTV D18 / MRTV D20 / MRTV D22 / MRTV D24 / MRTV D26: ratio of mean tumor volume at day t to volume at injection (D12)", "experimental": "NCI H460 cells were cultured as adherent cells in complete RPMI 1640 medium (Ref. CM1RRM08-01, batch No. 623615, Eurobio, France) containing 2 mM L-Glutamine, adjusted to 4.5 g/L glucose (Ref. G7528, batch No. 033K0121, Sigma, France) and supplemented with 10 mM HEPES (Ref. H0887, batch No. 113K2338, Sigma, France), 1.0 mM sodium pyruvate (Ref. CSTVAT00-0U, batch No. 520818, Sigma, France) and 10% fetal calf serum (FCS; Ref. CVFSVF00-01, batch No. S13021, Eurobio, France) under a 37° C., 5% CO2 humidified atmosphere. They were amplified in 75 cm^2-flasks to reach 90×10^6 cells.\nAt D0, NCI H460 cells (human lung carcinoma) were collected from 75 cm^2-flasks by removing the medium and adding 3 ml of trypsine-EDTA (Ref. CEZTDA00-0U, batch No. 633920, Eurobio, France). After 5 min of incubation at 37° C., cells were detached from the plastic and the enzymatic reaction was stopped by adding 3 ml of RPMI 1640 medium containing 10% fetal calf serum. Cells were then centrifuged at 700 g for 5 min at room temperature. They were resuspended in serum-free RPMI 1640 culture medium containing L-Glutamine (2 mM), glucose (4.5 g/l), sodium pyruvate (1 mM) and buffered with HEPES (10 mM). Cells were counted and the number of viable NCI H460 cells was >99%. The number of cells was then adjusted to 25.10^6 cells/ml in serum-free medium.\nNCI H460 cells (5.10^6 cells/mouse in 200 μL of serum-free medium) were then implanted subcutaneously in the right flank of each mouse.\nAt D12 post-implantation of the NCI H460 cells, the thirty mice were randomized into six groups of 5 mice. Tumor volumes had reached 228 to 468 mm^3 and mean tumor volumes were not statistically different between groups after randomization.\nAll solutions were injected IP.\nAnimals have been observed daily.\n• Tumor growth curves were drawn using the mean tumor volumes (MTV), • Mean Relative tumor volume (MRTV) was calculated as the ratio between the MTV at time t and the volume at the time of injection (t=D12), • Tumor growth inhibition (T/C, %) was evaluated as the ratio of the median tumor volumes of treated groups versus vehicle group.\nStatistical analyses of tumor volumes (V), time to reach ‘V’, tumor-doubling time (DT), relative tumor volume (RTV) and tumor growth inhibition (T/C) were performed for all groups. Data are expressed as mean±SD. Groups of data were normally distributed. Univariate analysis were performed to assess differences between groups. Statistical significance was then determined using the Student's t test. A P<0.05 was considered as statistically significant. The Statistical analysis was performed using XLSTAT (Addinsoft, France)."}, "HUVEC": {"tested_on": "HUVEC", "test": "Wound assay, migration of human endothelial cells", "format": "cell-based", "conditions": "18 hours; 497C-T2 0.83 and 1.66 μM; 497C-T3 2.4 μM; 497C-T4 3.52 μM; 497C-T5 3.65 μM; C-terminal tail 4.92 μM", "experimental": "Cell migration was tested by the wound assay described by Sato and Rifkin (J Cell Biol. 1988; 107:1199) with few modifications. HUVEC grown in growth medium EGM-2MV (Cambrex) were seeded in 24-well plates at 80 000 cells per well in 500 μL of growth medium and grown to confluence at 37° C. in a humidified atmosphere containing 5% CO2. Cells were scrapped with a plastic tip on one line only. After wounding, the culture medium was changed for fresh medium (control, FIG. 3a) or fresh medium supplemented with: • FIG. 3b: 497C-T2 20 μg/mL (0.83 μM) • FIG. 3c: 497C-T2 40 μg/mL (1.66 μM) • FIG. 3d: 497C-T3 48 μg/mL (2.4 μM) • FIG. 3e: 497C-T4 60 μg/mL (3.52 μM) • FIG. 3f: 497C-T5 61 μg/mL (3.65 μM) • FIG. 3g: C-terminal tail 63 μg/mL (4.92 μM)\nAfter 18 hours of culture, cells were observed and photographed under the inverted microscope (Analysis, Olympus, Rungis, France)."}, "[1]": {"conditions": "IP Q2DX8, CDDP 5 mg/kg (G2), 497C-T2 10 mg/kg (G3), 497C-T2 10 mg/kg + CDDP 5 mg/kg (G5)"}},
  "note": "Several values for one entry are separate records, joined by “and”; a condition that tells them apart may be missing. Equal values may be shown once. Entries after “also recorded” stand apart in the source; their conditions may differ.",
  "data": [
    {"molecule": "N.N.[Cl][Pt][Cl]", "note": "[Cisplatin, cis-diamineplatinum (II) dichloride, reference compound]", "values": [
      {"measurement": "MRTV D14", "setting": "CALU-6 tumors", "value": 3.11},
      {"measurement": "MRTV D16", "setting": "CALU-6 tumors", "value": 2.39},
      {"measurement": "MRTV D18", "setting": "CALU-6 tumors", "value": 2.66},
      {"measurement": "MRTV D20", "setting": "CALU-6 tumors", "value": 3.08},
      {"measurement": "MRTV D22", "setting": "CALU-6 tumors", "value": 3.70},
      {"measurement": "MRTV D24", "setting": "CALU-6 tumors", "value": 4.84},
      {"measurement": "MRTV D26", "setting": "CALU-6 tumors", "value": 4.11},
      {"measurement": "MRTV D28", "setting": "CALU-6 tumors", "value": 5.98},
      {"measurement": "MTV at D28", "setting": "CALU-6 tumors", "value": "742.44±215.85", "unit": "mm^3"},
      {"measurement": "MRTV D12", "setting": "CALU-6 tumors; reference day", "value": 1},
      {"measurement": "reduction of tumor size compared to the vehicle-treated group 1", "setting": "NCI H460 human tumor; D28, CDDP 5 mg/kg IP Q2DX8 (G2)", "value": 68, "unit": "%"},
      {"measurement": "DT (doubling time of tumor volume)", "setting": "NCI H460 human tumor; [1]", "value": "5.12 ± 2.89 days and 5.12 days"},
      {"measurement": "MRTV D14", "setting": "NCI H460 human tumor; [1]", "value": 1.59},
      {"measurement": "MRTV D16", "setting": "NCI H460 human tumor; [1]", "value": 1.74},
      {"measurement": "MRTV D18", "setting": "NCI H460 human tumor; [1]", "value": 2.30},
      {"measurement": "MRTV D20", "setting": "NCI H460 human tumor; [1]", "value": 2.29},
      {"measurement": "MRTV D22", "setting": "NCI H460 human tumor; [1]", "value": 3.39},
      {"measurement": "MRTV D24", "setting": "NCI H460 human tumor; [1]", "value": 3.67},
      {"measurement": "MRTV D26", "setting": "NCI H460 human tumor; [1]", "value": 3.67},
      {"measurement": "MRTV D28", "setting": "NCI H460 human tumor; [1]", "value": 4.88},
      {"measurement": "MTV at D14", "setting": "NCI H460 human tumor; [1]", "value": 513.35, "unit": "mm^3"},
      {"measurement": "MTV at D24", "setting": "NCI H460 human tumor; [1]", "value": 1083.74, "unit": "mm^3"},
      {"measurement": "MTV at D28", "setting": "NCI H460 human tumor; [1]", "value": "1440±1097 mm^3 and 1440.18 mm^3"},
      {"measurement": "MRTV D12", "setting": "NCI H460 human tumor; reference day, IP Q2DX8, CDDP 5 mg/kg (G2), 497C-T2 10 mg/kg (G3), 497C-T2 10 mg/kg + CDDP 5 mg/kg (G5)", "value": 1.00}
    ]},
    {"molecule": "497C-T5: d2 and e domains of the LEL domain of protein 497C, SEQ ID NO:6 (43 amino acids) (MNETDCNPQDLHNLTVAATKVNQKGCYDLVTSFMETNMGIIAG; listed as Homo sapiens)", "values": [
      {"measurement": "inhibition of endothelial cell migration", "setting": "HUVEC", "value": "very limited anti-migratory activity; also recorded: limited activities relative to that of 497C-T2"}
    ]},
    {"molecule": "497C-T4: d1, d2 and e domains of the LEL domain of protein 497C, SEQ ID NO:5 (49 amino acids) (IPPSCCMNETDCNPQDLHNLTVAATKVNQKGCYDLVTSFMETNMGIIAG; listed as Homo sapiens)", "values": [
      {"measurement": "inhibition of endothelial cell migration", "setting": "HUVEC", "value": "less active than 497C-T2; also recorded: limited activities relative to that of 497C-T2"}
    ]},
    {"molecule": "B1", "values": [
      {"measurement": "inhibition of endothelial cell migration", "setting": "HUVEC", "value": "inhibited cell migration similarly to the protein 497C-T2; also recorded: almost as potent than 497C-T2"}
    ]}
  ]
}
